This note sets out measurements from patent US8785463B2, “GPR 119 agonists” (Cadila Healthcare Limited, priority 2010, dated 2014).

The target of the assay is T1, human GPR 119 receptor (Homo sapiens, UniProt Q8TDV5).
T1 construct: expressed in transfected cells
T1 sequence (Q8TDV5 1-335): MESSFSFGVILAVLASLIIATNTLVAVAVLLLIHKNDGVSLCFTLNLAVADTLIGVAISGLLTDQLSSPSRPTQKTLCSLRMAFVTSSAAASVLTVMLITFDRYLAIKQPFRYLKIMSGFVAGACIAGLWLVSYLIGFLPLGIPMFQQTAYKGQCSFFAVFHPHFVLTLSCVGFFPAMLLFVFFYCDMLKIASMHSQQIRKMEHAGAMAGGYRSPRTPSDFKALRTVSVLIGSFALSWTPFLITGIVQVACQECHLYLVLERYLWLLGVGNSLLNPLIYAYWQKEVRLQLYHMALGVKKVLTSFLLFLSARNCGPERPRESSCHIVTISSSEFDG
Description: cAMP assay in stable cell line expressing recombinant human GPR 119 receptor. The class given is cell-based. The note with it: DMSO = 1. From the text:
A stable cell line expressing recombinant human GPR 119 receptor was established and used to investigate the efficacy of the compounds of the invention based on the intracellular levels of cyclic AMP (cAMP) using commercially available cAMP kits.
In general terms: Cyclic AMP is a second messenger, typically raised through Gs and lowered through Gi signalling.

`CCc1cnc(N2CCC(Oc3ncnc(Oc4ccc(/C=C5\SC(=O)N(S(C)(=O)=O)C5=O)cc4)c3C)CC2)nc1` [Example 3, (2)-5-(4-((6-((1-(5-Ethylpyrimidin-2-yl)piperidin-4-yl)oxy)-5-methylpyrimidin-4-yl)oxy)benzylidene)-3-(methylsulfonyl)thiazolidine-2,4-dione]: the “Fold increase in cyclic AMP with respective to DMSO” value (shortened to “Fold increase in cyclic AMP”) reads like this: (10 nM compound) 0.64 fold; (100 nM compound) 0.88 fold; (1 uM compound) 2.02 fold.
With `CCOC(=O)N1CCC(Oc2ncnc(Oc3cccc(/C=C4\SC(=O)N(C)C4=O)c3)c2C)CC1` [Example 4, (Z)-Ethyl-4-((5-methyl-6-(3-((3-methyl-2,4-dioxothiazoldin-5-ylidene)methy 1)phenoxy)pyrimidin-4-yl)oxy)piperidine-1-carboxylate], the “Fold increase in cyclic AMP” value runs as follows: (10 nM compound) 4.52 fold; (100 nM compound) 4.95 fold; (1 uM compound) 7.17 fold.
For `COc1cc(/C=C2\SC(=O)NC2=O)ccc1Oc1ncnc(OC2CCN(C(=O)OC(C)(C)C)CC2)c1C` [Example 8, (Z)-tert-Butyl 4-((6-(4-((2,4-dioxothiazolidin-5-ylidene)methyl)-2-methoxyphenoxy)-5-methylpyrimidin-4-yl)oxy)piperidine-1-carboxylate], the “Fold increase in cyclic AMP” value is given as 0.52 fold (10 nM compound), 0.85 fold (100 nM compound) and 1.67 fold (1 uM compound).
For `CC(C)c1noc(N2CCC(Oc3cc(Oc4ccc(/C=C5\SC(=O)NC5=O)cc4)ncn3)CC2)n1` [Example 10, (Z)-5-(4-((6-((1-(3-iso-Propyl-1,2,4-oxadiazol-5-yl)piperidin-4-yl)oxy)pyrimidin-4-yl)oxy)benzylidene)thiazolidine-2,4-dione], in that order: 1.14 fold, 2.30 fold and 5.06 fold.
For `COC(=O)N1CCC(Oc2ncnc(Oc3ccc(/C=C4\SC(=O)NC4=O)cc3)c2C)CC1` [Example 11, (Z)-Methyl 4-((6-(4-((2,4-dioxothiazolidin-5-ylidene)methyl)phenoxy)-5-methylpyrimidin-4-yl)oxy)piperidine-1-carboxylate] the same measures were 1.00 fold, 1.38 fold and 2.51 fold.
For `Cc1c(Oc2ccc(/C=C3\SC(=O)NC3=O)cc2)ncnc1OC1CCN(C(=O)OCc2ccccc2)CC1` [Example 13, (Z)-Benzyl 4-((6-(4-((2,4-dioxothiazolidin-5-ylidene)methyl)phenoxy)-5-methylpyrimidin-4-yl)oxy)piperidine-1-carboxylate], the “Fold increase in cyclic AMP” value (10 nM compound) was 0.61 fold, the “Fold increase in cyclic AMP” value (100 nM compound) came to 0.63 fold and the “Fold increase in cyclic AMP” value (1 uM compound) came to 1.42 fold.
For `CCOC(=O)N1CCC(Oc2ncnc(Oc3ccc(/C=C4\SC(=O)NC4=O)cc3)c2C)CC1` [Example 14, (Z)-Ethyl 4-((6-(4-((2,4-dioxothiazolidin-5-ylidene)methyl)phenoxy)-5-methylpyrimidin-4-yl)oxy)piperidine-1-carboxylate], in that order: 1.40 fold, 2.40 fold and 6.61 fold.
In the case of `Cc1c(Oc2ccc(/C=C3\SC(=O)NC3=O)cc2)ncnc1OC1CCN(C(=O)OCC(C)C)CC1` [Example 15, (Z)-iso-Butyl 4-((6-(4-((2,4-dioxothiazolidin-5-ylidene)methyl)phenoxy)-5-methylpyrimidin-4-yl)oxy)piperidine-1-carboxylate], the “Fold increase in cyclic AMP” value (10 nM compound) is reported as 1.72 fold, the “Fold increase in cyclic AMP” value (100 nM compound) is recorded as 2.19 fold and the “Fold increase in cyclic AMP” value (1 uM compound) stood at 3.28 fold.
In the case of `Cc1c(Oc2ccc(/C=C3\SC(=O)NC3=O)cc2)ncnc1OC1CCN(C(=O)OC(C)C)CC1` [Example 16, (Z)-iso-Propyl 4-((6-(4-((2,4-dioxothiazolidin-5-ylidene)methyl)phenoxy)-5-methylpyrimidin-4-yl)oxy)piperidine-1-carboxylate], the “Fold increase in cyclic AMP” value by setting is: (10 nM compound) 1.91 fold; (100 nM compound) 2.54 fold; (1 uM compound) 3.17 fold.
For `Cc1c(Oc2ccc(/C=C3\SC(=O)NC3=O)cc2)ncnc1OC1CCN(c2ncccn2)CC1` [Example 17, (Z)-5-(4-((5-Methyl-6-((1-(pyrimidin-2-yl)piperidin-4-yl)oxy)pyrimidin-4-yl)oxy)benzylidene)thiazolidine-2,4-dione], in that order: 0.84 fold, 1.06 fold and 2.57 fold.
Consider `Cc1c(OCC2CCCN2C(=O)OC(C)(C)C)ncnc1Oc1ccc(/C=C2\SC(=O)NC2=O)cc1` (stereo not drawn) [Example 18, (Z)-tert-Butyl 2-(((6-(4-((2,4-dioxothiazolidin-5-ylidene)methyl)phenoxy)-5-methylpyrimidin-4-yl)oxy)methyl)pyrrolidine-1-carboxylate], for which the “Fold increase in cyclic AMP” value is, setting by setting: (10 nM compound) 1.50 fold; (100 nM compound) 2.57 fold; (1 uM compound) 4.03 fold.
For `CC(C)(C)OC(=O)N1CCC(Oc2cc(Oc3cccc(/C=C4\SC(=O)NC4=O)c3)ncn2)CC1` [Example 19, (Z)-tert-Butyl 4-((6-(3-((2,4-dioxothiazolidin-5-ylidene)methyl)phenoxy)pyrimidin-4-yl)oxy)piperidine-1-carboxylate], in that order: 1.31 fold, 1.92 fold and 4.24 fold.
For `CCOC(=O)N1CCC(Oc2ncnc(Oc3cccc(/C=C4\SC(=O)NC4=O)c3)c2C)CC1` [Example 20, (Z)-Ethyl 4-((6-(3-((2,4-dioxothiazolidin-5-ylidene)methyl)phenoxy)-5-methylpyrimidin-4-yl)oxy)piperidine-1-carboxylate], in that order: 0.59 fold, 2.02 fold and 2.39 fold.
For `COC(=O)N1CCC(Oc2ncnc(Oc3cccc(/C=C4\SC(=O)NC4=O)c3)c2C)CC1` [Example 21, (Z)-Methyl 4-((6-(3-((2,4-dioxothiazolidin-5-ylidene)methyl)phenoxy)-5-methylpyrimidin-4-yl)oxy)piperidine-1-carboxylate] the same measures were 0.92 fold, 1.06 fold and 2.35 fold.
Take `Cc1c(Oc2cccc(/C=C3\SC(=O)NC3=O)c2)ncnc1OC1CCN(C(=O)OCC(C)C)CC1` [Example 22, (Z)-iso-Butyl 4-((6-(3-((2,4-dioxothiazolidin-5-ylidene)methyl)phenoxy)-5-methylpyrimidin-4-yl)oxy)piperidine-1-carboxylate]: the “Fold increase in cyclic AMP” value was 0.95 fold (10 nM compound), 1.82 fold (100 nM compound) and 1.66 fold (1 uM compound).
For `Cc1c(OCC2CCCN2C(=O)OC(C)(C)C)ncnc1Oc1cccc(/C=C2\SC(=O)NC2=O)c1` (stereo not drawn) [Example 23, (Z)-tert-Butyl 2-(((6-(3-((2,4-dioxothiazolidin-5-ylidene)methyl)phenoxy)-5-methylpyrimidin-4-yl)oxy)methyl)pyrrolidine-1-carboxylate], in that order: 0.90 fold, 1.29 fold and 1.11 fold.
For `CC(C)(C)OC(=O)N1CCC(Oc2cc(Oc3ccc(/C=C4\SC(=O)N(S(C)(=O)=O)C4=O)cc3)ncn2)CC1` [Example 24, (Z)-tert-Butyl 4-((6-(4-((3-(methylsulfonyl)-2,4-dioxothiazolidin-5-ylidene)methyl)phenoxy)pyrimidin-4-yl)oxy)piperidine-1-carboxylate], in that order: 1.07 fold, 1.11 fold and 2.27 fold.
For `Cc1c(Oc2cccc(/C=C3\SC(=O)NC3=O)c2)ncnc1OC1CCN(c2nc(C(C)C)no2)CC1` [Example 25, (Z)-5-(3-((6-((1-(3-Isopropyl-1,2,4-oxadiazol-5-yl)piperidin-4-yl)oxy)-5-methylpyrimidin-4-yl)oxy)benzylidene)thiazolidine-2,4-dione] the same measures were 3.32 fold, 5.81 fold and 1.39 fold.
As to `CCc1cnc(N2CCC(Oc3ncnc(Oc4cccc(/C=C5\SC(=O)NC5=O)c4)c3C)CC2)nc1` [Example 26, (Z)-5-(3-((6-((1-(5-Ethylpyrimidin-2-yl)piperidin-4-yl)oxy)-5-methylpyrimidin-4-yl)oxy)benzylidene)thiazolidine-2,4-dione], the “Fold increase in cyclic AMP” value by setting is: (10 nM compound) 4.02 fold; (100 nM compound) 7.17 fold; (1 uM compound) 9.34 fold.
